Source: patent US12440484B2, “1,3,4-oxadiazole homophthalimide derivative compounds as histone deacetylase 6 inhibitor, and the pharmaceutical composition comprising the same” (Chong Kun Dang Pharmaceutical Corp., priority 2019, dated 2025)

Experiments:
[1] = biological target: HDAC6 human recombinant (Homo sapiens (Human), UniProt Q9UBN7); experiment: HDAC enzyme activity inhibition (in vitro), HDAC6 assay; format: biochemical; conditions: samples at 0.1, 1, 10, 100 and 1000 nM; 37° C. 60 minutes; fluorescence Ex 390, Em 460
Sequence of HDAC6 human recombinant (Q9UBN7 whole entry): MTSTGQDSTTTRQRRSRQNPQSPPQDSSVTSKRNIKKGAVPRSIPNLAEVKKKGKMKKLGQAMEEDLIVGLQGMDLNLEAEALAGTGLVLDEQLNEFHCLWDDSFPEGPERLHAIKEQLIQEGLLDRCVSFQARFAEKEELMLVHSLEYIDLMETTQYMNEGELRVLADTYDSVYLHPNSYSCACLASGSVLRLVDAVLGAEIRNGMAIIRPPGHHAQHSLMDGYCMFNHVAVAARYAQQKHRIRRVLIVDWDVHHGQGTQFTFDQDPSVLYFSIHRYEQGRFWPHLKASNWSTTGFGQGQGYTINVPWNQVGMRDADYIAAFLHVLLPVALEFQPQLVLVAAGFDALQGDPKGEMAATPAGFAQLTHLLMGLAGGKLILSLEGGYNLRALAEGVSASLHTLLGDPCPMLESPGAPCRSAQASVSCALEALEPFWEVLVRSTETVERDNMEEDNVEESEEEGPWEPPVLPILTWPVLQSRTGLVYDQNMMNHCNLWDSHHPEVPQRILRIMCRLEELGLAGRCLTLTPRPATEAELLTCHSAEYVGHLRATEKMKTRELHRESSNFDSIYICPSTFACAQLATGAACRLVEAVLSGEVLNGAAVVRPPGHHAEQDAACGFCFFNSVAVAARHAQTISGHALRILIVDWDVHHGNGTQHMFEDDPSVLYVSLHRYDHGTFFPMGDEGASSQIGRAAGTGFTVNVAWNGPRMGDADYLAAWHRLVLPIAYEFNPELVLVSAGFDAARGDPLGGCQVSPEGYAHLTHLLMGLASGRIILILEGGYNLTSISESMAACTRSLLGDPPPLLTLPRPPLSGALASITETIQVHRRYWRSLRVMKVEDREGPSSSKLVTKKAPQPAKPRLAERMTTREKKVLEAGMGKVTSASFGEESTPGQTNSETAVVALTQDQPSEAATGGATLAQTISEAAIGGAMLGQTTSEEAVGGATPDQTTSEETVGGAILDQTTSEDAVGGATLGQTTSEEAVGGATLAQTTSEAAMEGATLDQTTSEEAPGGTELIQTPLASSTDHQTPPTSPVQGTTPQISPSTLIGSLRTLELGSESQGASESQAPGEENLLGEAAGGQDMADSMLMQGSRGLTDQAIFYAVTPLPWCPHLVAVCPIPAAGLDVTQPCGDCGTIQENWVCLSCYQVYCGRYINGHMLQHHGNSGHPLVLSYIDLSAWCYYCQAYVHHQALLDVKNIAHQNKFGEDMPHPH

[2] = biological target: HDAC1 (Homo sapiens (Human), UniProt Q13547); experiment: HDAC enzyme activity inhibition (in vitro), HDAC1 Fluorimetric Drug Discovery Assay Kit; format: biochemical; conditions: samples at 100, 1000 and 10000 nM; 37° C. 60 minutes; fluorescence Ex 390, Em 460
Sequence of HDAC1 (Q13547 whole entry): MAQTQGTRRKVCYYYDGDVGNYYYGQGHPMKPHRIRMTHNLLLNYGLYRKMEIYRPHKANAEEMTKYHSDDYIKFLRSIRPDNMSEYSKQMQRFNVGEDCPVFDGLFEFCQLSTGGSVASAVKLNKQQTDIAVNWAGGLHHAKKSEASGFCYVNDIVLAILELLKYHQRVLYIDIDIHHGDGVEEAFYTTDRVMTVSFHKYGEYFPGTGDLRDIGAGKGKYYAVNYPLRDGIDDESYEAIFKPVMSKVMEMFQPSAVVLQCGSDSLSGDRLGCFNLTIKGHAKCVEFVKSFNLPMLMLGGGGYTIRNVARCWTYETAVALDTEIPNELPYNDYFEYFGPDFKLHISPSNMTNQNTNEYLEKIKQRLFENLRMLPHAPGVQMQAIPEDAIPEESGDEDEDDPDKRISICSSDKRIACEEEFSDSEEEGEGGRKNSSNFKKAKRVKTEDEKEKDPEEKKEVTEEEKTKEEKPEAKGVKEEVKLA

## CC1(C)C(=O)N(Cc2ccc(-c3nnc(C(F)F)o3)cn2)C(=O)c2c(-c3ccoc3)cccc21 [Compound 95, 2-((5-(5-(difluoromethyl)-1,3,4-oxadiazole-2-yl)pyridine-2-yl)methyl)-8-(furan-3-yl)-4,4-dimethylisoquinoline-1,3(2H,4H)-dione]
[1]
  IC50: 59 nM
[2]
  IC50: > 10000 nM

## CN(C)C(=O)C1CCN(c2ccc3c(c2)C(C)(C)C(=O)N(Cc2ccc(-c4nnc(C(F)F)o4)cn2)C3=O)CC1 [Compound 57, 1-(2-((5-(5-(difluoromethyl)-1,3,4-oxadiazole-2-yl)pyridine-2-yl)methyl)-4,4-dimethyl-1,3-dioxo-1,2,3,4-tetrahydroisoquinoline-6-yl)-N,N-dimethylpiperidine-4-carboxamide]
[1]
  IC50: 32 nM
[2]
  IC50: > 10000 nM

## CC(C)N1CCN(c2ccc3c(c2)C(C)(C)C(=O)N(Cc2ccc(-c4nnc(C(F)F)o4)cn2)C3=O)CC1 [Compound 26, 2-((5-(5-(difluoromethyl)-1,3,4-oxadiazole-2-yl)pyridine-2-yl)methyl)-6-(4-isopropylpiperazine-1-yl)-4,4-dimethylisoquinoline-1,3(2H,4H)-dione]
[1]
  IC50: 22 nM
[2]
  IC50: > 10000 nM

## CC1(C)C(=O)N(Cc2ccc(-c3nnc(C(F)F)o3)cn2)C(=O)c2ccc(-c3ccncc3)cc21 [Compound 105, 2-((5-(5-(difluoromethyl)-1,3,4-oxadiazole-2-yl)pyridine-2-yl)methyl)-4,4-dimethyl-6-(pyridine-4-yl)isoquinoline-1,3(2H,4H)-dione]
[1]
  IC50: 10 nM
[2]
  IC50: > 10000 nM

## CCN1CC=C(c2ccc3c(c2)C(C)(C)C(=O)N(Cc2ncc(-c4nnc(C(F)F)o4)cn2)C3=O)CC1 [Compound 155, 2-((5-(5-(difluoromethyl)-1,3,4-oxadiazole-2-yl)pyrimidine-2-yl)methyl)-6-(1-ethyl-1,2,3,6-tetrahydropyridine-4-yl)-4,4-dimethylisoquinoline-1,3(2H,4H)-dione]
[1]
  IC50: 185 nM
[2]
  IC50: > 10000 nM

## CC1(C)C(=O)N(Cc2ccc(-c3nnc(C(F)F)o3)cn2)C(=O)c2ccc(-c3ccoc3)cc21 [Compound 102, 2-((5-(5-(difluoromethyl)-1,3,4-oxadiazole-2-yl)pyridine-2-yl)methyl)-6-(furan-3-yl)-4,4-dimethylisoquinoline-1,3(2H,4H)-dione]
[1]
  IC50: 30 nM
[2]
  IC50: > 10000 nM

## CC(C)CN1CCN(c2ccc3c(c2)C(C)(C)C(=O)N(Cc2ccc(-c4nnc(C(F)F)o4)cn2)C3=O)CC1 [Compound 149, 2-((5-(5-(difluoromethyl)-1,3,4-oxadiazole-2-yl)pyridine-2-yl)methyl)-6-(4-isobutylpiperazine-1-yl)-4,4-dimethylisoquinoline-1,3(2H,4H)-dione]
[1]
  IC50: 95 nM
[2]
  IC50: > 10000 nM

## CN1CCC(Cn2c(=O)n(Cc3ccc(-c4nnc(C(F)F)o4)cn3)c(=O)c3cc(F)ccc32)CC1 [Compound 73, 3-((5-(5-(difluoromethyl)-1,3,4-oxadiazole-2-yl)pyridine-2-yl)methyl)-6-fluoro-1-((1-methylpiperidine-4-yl)methyl)quinazoline-2,4(1H,3H)-dione]
[1]
  IC50: 98 nM
[2]
  IC50: > 10000 nM

## O=c1c2ccccc2n(Cc2ccc(-c3nnc(C(F)F)o3)cn2)c(=O)n1CCc1ccccc1 [Compound 77, 1-((5-(5-(difluoromethyl)-1,3,4-oxadiazole-2-yl)pyridine-2-yl)methyl)-3-phenethylquinazoline-2,4(1H,3H)-dione]
[1]
  IC50: 141 nM
[2]
  IC50: > 10000 nM

## CN(C)C1CCN(c2ccc3c(c2)C(C)(C)C(=O)N(Cc2ccc(-c4nnc(C(F)F)o4)cn2)C3=O)CC1 [Compound 37, 2-((5-(5-(difluoromethyl)-1,3,4-oxadiazole-2-yl)pyridine-2-yl)methyl)-6-(4-(dimethylamino)piperidine-1-yl)-4,4-dimethylisoquinoline-1,3(2H,4H)-dione]
[1]
  IC50: 15 nM
[2]
  IC50: > 10000 nM

## CC1(C)C(=O)N(Cc2ccc(-c3nnc(C(F)F)o3)cn2)C(=O)c2cc(C3CCN(C(=O)CO)CC3)ccc21 [Compound 134, 2-((5-(5-(difluoromethyl)-1,3,4-oxadiazole-2-yl)pyridine-2-yl)methyl)-7-(1-(2-hydroxyacetyl)piperidine-4-yl)-4,4-dimethylisoquinoline-1,3(2H,4H)-dione]
[1]
  IC50: 12 nM
[2]
  IC50: > 10000 nM

## CC1(C)C(=O)N(Cc2ccc(-c3nnc(C(F)F)o3)cn2)C(=O)c2cc(C3=CCS(=N)(=O)CC3)ccc21 (centres unmarked) [Compound 126, 2-((5-(5-(difluoromethyl)-1,3,4-oxadiazole-2-yl)pyridine-2-yl)methyl)-7-(1-imino-1-oxydo-1,2,3,6-tetrahydro-1λ^6-thiopyran-4-yl)-4,4-dimethylisoquinoline-1,3(2H,4H)-dione]
[1]
  IC50: 32 nM
[2]
  IC50: > 10000 nM

## CCN1CCN(c2ccc3c(c2)C(C)(C)C(=O)N(Cc2ccc(-c4nnc(C(F)F)o4)cn2)C3=O)CC1 [Compound 39, 2-((5-(5-(difluoromethyl)-1,3,4-oxadiazole-2-yl)pyridine-2-yl)methyl)-6-(4-ethylpiperazine-1-yl)-4,4-dimethylisoquinoline-1,3(2H,4H)-dione]
[1]
  IC50: 18 nM
[2]
  IC50: > 10000 nM

## O=c1[nH]c2ccc(F)cc2c(=O)n1Cc1ccc(-c2nnc(C(F)F)o2)cn1 [Compound 67, 3-((5-(5-(difluoromethyl)-1,3,4-oxadiazole-2-yl)pyridine-2-yl)methyl)-6-fluoroquinazoline-2,4(1H,3H)-dione]
[1]
  IC50: 62 nM
[2]
  IC50: > 10000 nM

## CN1CCC(Cn2c(=O)n(Cc3ccc(-c4nnc(C(F)F)o4)cn3)c(=O)c3ccccc32)CC1 [Compound 15, 3-((5-(5-(difluoromethyl)-1,3,4-oxadiazole-2-yl)pyridine-2-yl)methyl)-1-((1-methylpiperidine-4-yl)methyl)quinazoline-2,4(1H,3H)-dione]
[1]
  IC50: 196 nM
[2]
  IC50: > 10000 nM

## CCN1CCC(c2ccc3c(c2)C(C)(C)C(=O)N(Cc2ccc(-c4nnc(C(F)F)o4)cn2)C3=O)CC1 [Compound 59, 2-((5-(5-(difluoromethyl)-1,3,4-oxadiazole-2-yl)pyridine-2-yl)methyl)-6-(1-ethylpiperidine-4-yl)-4,4-dimethylisoquinoline-1,3(2H,4H)-dione]
[1]
  IC50: 56 nM
[2]
  IC50: > 10000 nM

## CC(C)N1CC=C(c2ccc3c(=O)n(Cc4ccc(-c5nnc(C(F)F)o5)cn4)c(=O)n(C)c3c2)CC1 [Compound 124, 3-((5-(5-(difluoromethyl)-1,3,4-oxadiazole-2-yl)pyridine-2-yl)methyl)-7-(1-isopropyl-1,2,3,6-tetrahydropyridine-4-yl)-1-methylquinazoline-2,4(1H,3H)-dione]
[1]
  IC50: 38 nM
[2]
  IC50: > 10000 nM

## CC(C)(C)OC(=O)N1CCC(Cn2c(=O)n(Cc3ccc(-c4nnc(C(F)F)o4)cn3)c(=O)c3cc(F)ccc32)CC1 [Compound 72, Tert-butyl 4-((3-((5-(5-(difluoromethyl)-1,3,4-oxadiazole-2-yl)pyridine-2-yl)methyl)-6-fluoro-2,4-dioxo-3,4-dihydroquinazoline-1(2H)-yl)methyl)piperidine-1-carboxylate]
[1]
  IC50: 310 nM
[2]
  IC50: > 10000 nM

## Cn1c(=O)n(Cc2ccc(-c3nnc(C(F)F)o3)cn2)c(=O)c2ccc(C3=CCNCC3)cc21 [Compound 122, 3-((5-(5-(difluoromethyl)-1,3,4-oxadiazole-2-yl)pyridine-2-yl)methyl)-1-methyl-7-(1,2,3,6-tetrahydropyridine-4-yl)quinazoline-2,4(1H,3H)-dione]
[1]
  IC50: 23 nM
[2]
  IC50: > 10000 nM

## CC1(C)C(=O)N(Cc2ccc(-c3nnc(C(F)F)o3)cn2)C(=O)c2cc(-c3cccnc3)ccc21 [Compound 111, 2-((5-(5-(difluoromethyl)-1,3,4-oxadiazole-2-yl)pyridine-2-yl)methyl)-4,4-dimethyl-7-(pyridine-3-yl)isoquinoline-1,3(2H,4H)-dione]
[1]
  IC50: 17 nM
[2]
  IC50: > 10000 nM

## CCN1CCN(c2ccc3c(c2)C(=O)N(Cc2ccc(-c4nnc(C(F)F)o4)cn2)C(=O)C3(C)C)CC1 [Compound 129, 2-((5-(5-(difluoromethyl)-1,3,4-oxadiazole-2-yl)pyridine-2-yl)methyl)-7-(4-ethylpiperazine-1-yl)-4,4-dimethylisoquinoline-1,3(2H,4H)-dione]
[1]
  IC50: 26 nM
[2]
  IC50: > 10000 nM

## Cc1ccc(-c2cccc3c2C(=O)N(Cc2ccc(-c4nnc(C(F)F)o4)cn2)C(=O)C3(C)C)o1 [Compound 93, 2-((5-(5-(difluoromethyl)-1,3,4-oxadiazole-2-yl)pyridine-2-yl)methyl)-4,4-dimethyl-8-(5-methylfuran-2-yl)isoquinoline-1,3(2H,4H)-dione]
[1]
  IC50: 143 nM
[2]
  IC50: > 10000 nM

## CC1(C)C(=O)N(Cc2ccc(-c3nnc(C(F)F)o3)cn2)C(=O)c2ccc(N3CCN(C4CCC(F)(F)CC4)CC3)cc21 [Compound 150, 6-(4-(4,4-difluorocyclohexyl)piperazine-1-yl)-2-((5-(5-(difluoromethyl)-1,3,4-oxadiazole-2-yl)pyridine-2-yl)methyl)-4,4-dimethylisoquinoline-1,3(2H,4H)-dione]
[1]
  IC50: 51 nM
[2]
  IC50: > 10000 nM

## CC1(C)C(=O)N(Cc2ccc(-c3nnc(C(F)F)o3)cn2)C(=O)c2c(-c3cccnc3)cccc21 [Compound 85, 2-((5-(5-(difluoromethyl)-1,3,4-oxadiazole-2-yl)pyridine-2-yl)methyl)-4,4-dimethyl-8-(pyridine-3-yl)isoquinoline-1,3(2H,4H)-dione]
[1]
  IC50: 50 nM
[2]
  IC50: > 10000 nM

## CC(C)CN1CCC(c2ccc3c(c2)C(=O)N(Cc2ccc(-c4nnc(C(F)F)o4)cn2)C(=O)C3(C)C)CC1 [Compound 144, 2-((5-(5-(difluoromethyl)-1,3,4-oxadiazole-2-yl)pyridine-2-yl)methyl)-7-(1-isobutylpiperidine-4-yl)-4,4-dimethylisoquinoline-1,3(2H,4H)-dione]
[1]
  IC50: 34 nM
[2]
  IC50: > 10000 nM
